Experimental data taken from patent publication US20220177911A1, “SYNTHETIC CIRCUIT FOR CELLULAR MULTISTABILITY” (California Institute of Technology, priority 2020, published 2022).

How the values were obtained:
[1] = system: reporter containing 18 bp homodimer binding sites driving the expression of Citrine; test: Transient co-transfection Citrine reporter assay of ZF transcription factors; assay type: cell-based, Chinese hamster
Source text: To engineer ZF transcription factors, the ErbB2 ZF DNA-binding domain was fused to a GCN4 homodimerization domain and a VP48 transcriptional activation domain to create the synthetic transcription factor, termed ZF-GCN4-AD (FIG. 2A). A transcription factor (ZF-AD) lacking GCN4 was used as a monomeric control. To assay their transcriptional activity, a reporter was constructed containing 18 bp homodimer binding sites driving the expression of Citrine. Each transcription factor was then co-transfected together with the reporter and an mTagBFP2 co-transfection marker into Chinese hamster ovary K1 (CHO-K1) cells, and analyzed for Citrine expression by flow cytometry 36 hours later (FIG. 2A and FIG. 9A) (See, “Additional Methods” below). […] Arginine-to-alanine mutations were introduced at key positions in the ZF known to weaken DNA binding, which decreased monomeric activity without reducing homodimer activity (FIG. 2A, red square). […]
All tissue culture experiments were performed with Chinese hamster ovary K1 cells (CHO-K1, ATCC). […] Cells were harvested after 36 hours and cell fluorescence was measured by flow cytometry. […] After another 72 hours, cells were harvested and analyzed by flow cytometry. […] The inhibition strength was quantified as the reduction of self-activation cell fractions. […]

[2] = system: self-activation construct in Tet3G-expressing CHO-K1 cells; test: ZF transcription factor self-activation assay (normalized mCitrine+ fraction); assay type: cell-based, Chinese hamster; conditions: 24 hours Dox, then Dox withdrawn; 72 hours in AP1903 and/or TMP
Source text: To validate this capability, a self-activation construct was designed (FIG. 2C), in which a transcription factor with a FKBP dimerization domain is expressed from a promoter containing its own 18 bp homodimer binding sites (Table 2). This construct allowed independent Dox-inducible activation through upstream Tet3G (Takara Bio) binding sites. […] Finally, a destabilized mCitrine was incorporated for dynamic readout of construct expression. This construct was integrated into Tet3G-expressing CHO-K1 cells, generating a stable polyclonal population for further analysis (Table 3) (See, “Additional Methods” below).
For experiments characterizing ZF transcription factor self-activation (FIG. 2C and FIG. 10A), each self-activation construct was stably integrated (Table 2) into polyclonal Tet3G-expressing CHO-K1 cells via PiggyBac (Systems Biosciences) to make a polyclonal cell line (Table 3). […] After another 72 hours, cells were harvested and analyzed by flow cytometry.
Each self-activation construct (Table 2, construct MF63-MF69) was stably integrated into Tet3G-expressing CHO-K1 cells. […] After another 72 hours, cells were harvested and analyzed by flow cytometry. […]

[3] = system: MultiFate-2.3 cells; test: Flow cytometry analysis of MultiFate-2.3 state-switching; assay type: cell-based, Chinese hamster
Source text: FIG. 21A-FIG. 21C depict non-limiting exemplary data related to raw flow cytometry analysis of MultiFate-2.3 state-switching. Each plot represents one of three biological replicates at the indicated time point (cf. FIG. 4B). Initial A-only, B-only and A+B cells (rows) were sorted under the media conditions indicated on the top. Each 2-dimensional flow cytometry plot was divided at mCherry=104 and mCitrine=104 into four quadrants, representing four states. For each plot, the percentage of cells in each of the four states is labeled on the corresponding corner. Timelines above each set of plots represent the time and indicated inducer conditions. Note that since the response elements for 4-OHT or Dox are adjacent to the transcription factor homodimer binding sites (Table 2), the addition of 4-OHT or Dox increases A or B expression up to, but not substantially beyond, the level produced by transcription factor self-activation. […] Additional Dox activation further increased the B expression only by another 1.4 fold (Day 6 versus Day 18).
Finally, it was asked to what extent cells could be deliberately switched from one state to another through transient perturbations. MultiFate-2.3, in which the A and B genes can be independently activated by 4-hydroxy-tamoxifen (4-OHT) and Dox, respectively, was used to address this question. In this cell-line, the response elements for the inducers are adjacent to the homodimer binding sites. Therefore, the addition of inducers increases A or B expression up to, but not substantially beyond, the level produced by self-activation (FIG. 2C and FIG. 21A-FIG. 21C). In the bistable regime, transient induction of either transcription factor switched cells into the corresponding state, where they remained in the absence of further induction (FIG. 8A, FIG. 4B, left, and FIG. 21A). […]
For flow cytometry experiments characterizing state stability (FIG. 3C and FIG. 5B) and state-switching dynamics (FIG. 4A-FIG. 4B), cells from each state were sorted into media containing corresponding inducers. […] The remaining 96% cells were suspended in the flow cytometry buffer and analyzed by flow cytometry. […]
To characterize long-term state stability of MultiFate cells in different media conditions (FIG. 3A-FIG. 5D), 4% of cells were trypsinized and transferred into fresh media with the same condition every three days. The remaining cells were resuspended in flow cytometry buffer and analyzed by a flow cytometer. The resulting two-dimensional (or three-dimensional for MultiFate-3) fluorescence intensity plots were then divided into four quadrants (or eight octants) by an empirical threshold in each of the two (or three) fluorescence channels. […]

[4] = system: monoclonal self-activation stable lines (42ZFR2AR39AR67A DNA-binding domain); test: Inhibition of self-activation by competitive dimerization; assay type: cell-based, Chinese hamster; conditions: 100 nM AP1903 and 10 μM TMP
Source text: To test this, monoclonal cell lines with the self-activating circuits were selected, and then constructs expressing proteins were stably integrated with a different ZF DNA-binding domain and a matching or mismatching dimerization domain to generate a polyclonal cell population for each perturbation construct (Table 2 and Table 3) (See, “Additional Methods” below). […] Without being bound by any particular theory, this may be through non-specific mechanisms (FIG. 2D and FIG. 10B-FIG. 10C).
All tissue culture experiments were performed with Chinese hamster ovary K1 cells (CHO-K1, ATCC). […] Cells were harvested after 36 hours and cell fluorescence was measured by flow cytometry. […] After another 72 hours, cells were harvested and analyzed by flow cytometry. […] The inhibition strength was quantified as the reduction of self-activation cell fractions.
To determine whether competitive dimerization inhibits self-activation (FIG. 2D and FIG. 10B-FIG. 10C), plasmids (Table 2, construct MF72-MF80) expressing different transcription factor variants and a co-translational mCherry were stably integrated in these two monoclonal lines. After puromycin selection, cells were transferred into media containing 100 nM AP1903+10 μM TMP to permit self-activation, and measured by flow cytometry after another 72 hours. […]

[5] = molecular target: T1, homodimerization domain (Homo sapiens, UniProt P62942, F37V); test: Dissociation constant of homodimerization domains (parameter estimate); assay type: binding; conditions: media containing 100 nM AP1903; reasoned from reporter activation versus GCN4; read-out: apparent dissociation constant Kd of homodimerization
T1 construct: expressed in transfected cells; host or cells: CHO-K1
Procedure: Finally, parameters related to protein dimerization were estimated. In some embodiments, the apparent dissociation constant Kd of FKBP homodimerization domain may depend on AP1903 concentrations. […] Based on this observation, it was reasoned that in media containing 100 nM AP1903, the apparent dissociation constant Kd≤10 nM. An estimate of Kd=10 nM=8000 molecules/cell was used in the model. For monomer association rate kon, an intermediate value in the range of diffusion-limited association rates of kon=4×10^5/(M·s)=1.8×10^−3 cell/(protein·hr) was used. These two values together produce a dimer dissociation rate koff=Kd×kon=[…].

[6] = molecular target: homodimerization domain; conditions: cited from earlier work

T1 sequence (P62942 2-108 F37V): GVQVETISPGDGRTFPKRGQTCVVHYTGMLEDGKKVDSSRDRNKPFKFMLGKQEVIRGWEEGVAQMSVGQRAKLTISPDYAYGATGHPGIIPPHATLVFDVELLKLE

In the case of CC[C@H](C(=O)N1CCCC[C@H]1C(=O)O[C@H](CCc1ccc(OC)c(OC)c1)c1cccc(OCC(=O)NCCNC(=O)COc2cccc([C@@H](CCc3ccc(OC)c(OC)c3)OC(=O)[C@@H]3CCCCN3C(=O)[C@@H](CC)c3cc(OC)c(OC)c(OC)c3)c2)c1)c1cc(OC)c(OC)c(OC)c1 [AP1903], the “control of ZF transcription factor dimerization/activation by dimerization ligand” value ([1]; FKBP12F36V (FKBP) homodimerization domain instead of GCN4, BCRZFR39A) is reported as “dose-dependent control of dimerization” and the “self-activation after Dox withdrawal (mCitrine distribution)” value [2] is reported as “bimodal distribution of mCitrine fluorescence”.
For 4-hydroxy-tamoxifen [4-OHT], the “additional increase in A expression by inducer compared with self-activation (Day 6 versus Day 18)” value ([3]; 4-OHT 25 nM) was 2.8 fold.
For COc1cc(Cc2cnc(N)nc2N)cc(OC)c1OC [TMP, trimethoprim], the “self-activation after Dox withdrawal (mCitrine distribution)” value [2] was “promoted self-activation in a dose-dependent manner”.
For “ZF-GCN4-AD: ErbB2 ZF DNA-binding domain fused to GCN4 homodimerization domain and VP48 activation domain”, the “reporter activation by ZF transcription factor” value ([1]; ErbB2 ZF, VP48 activation domain, wild-type (WT) ZF, flow cytometry 36 hours after transfection) was “strongly activated the reporter”.
In the case of “FKBP: FKBP12F36V homodimerization domain (SEQ ID NO: 5)”, the inhibition of self-activation ([4]; FKBP-42ZFR2AR39AR67A-VP48-DHFR self-activation cells) is reported as “can partially inhibit self-activation” and the Kd [5] is reported as at most 10 nM.
For GCN4: GCN4 homodimerization domain, the inhibition of self-activation ([4]; 42ZFR2AR39AR67A-GCN4-VP48-DHFR self-activation cells) is given as “did not have inhibitory effects” and the Kd [6] is given as 10 to 20 nM.
For “NLS-FKBP12F36V-37ZFR2AR11AR39AR67A-VP16-NLS-DHFR [transcription factor B]”, the “increase in B expression by transcription factor self-activation (Day 18 versus Day 0)” value [3] was 48 fold.
In the case of “NLS-FKBP12F36V-BCRZFR39A-VP16-NLS-DHFR [transcription factor A]”, the “increase in A expression by transcription factor self-activation (mCherry median Day 18 / Day 0)” value ([3]; mean of three replicates) is reported as 125 fold.
In the case of C[C@H]1c2cccc(O)c2C(=O)C2=C(O)[C@]3(O)C(=O)C(C(N)=O)=C(O)[C@@H](N(C)C)[C@@H]3[C@@H](O)[C@@H]21 [Dox], the “additional increase in B expression by inducer compared with self-activation (Day 6 versus Day 18)” value ([3]; Dox 500 ng/ml) is reported as 1.4 fold.
